The values that follow come from US4816464A, “10-Substituted benzo[b][1,6]naphthyridines as inhibitors of interleukin 1” (American Home Products Corporation, priority 1987, dated 1989).

One assay concerns carrageenan paw edema. The assay can be described thus: rat carrageenan paw edema assay. The note with it: for ED50: Rattus norvegicus, po, 3 h, read-out: Oral ED50 (95% C.L.); for % Change: 1 hour prior to carrageenan, edema at 3 hours. It counts as in vivo, rat (Sprague-Dawley). As for the experimental part:
The compounds of the invention are tested in the rat carrageenan paw edema assay to determined their ability to inhibit the acute inflammatory response. 140-180 gm male Sprague-Dawley rats, in groups of 6 animals, are injected subcutaneously in the right paw with 0.1 ml of 1% carrageenan at zero time. Mercury plethysmographic readings (ml) of the paw are made at zero time and 3 hours later. Test compounds are suspended or dissolved in 0.5% methylcellulose and given perorally 1 hour prior to carrageenan administration. The increase in paw volume (edema in ml.) produced by the carrageenan is measured. Paw edema is calculated (3 hour volume minus zero time volume), and percent inhibit of edema is determined. Unpaired Student's t-test is used to determine statistical significance.
In general terms: The carrageenan paw model is a standard test of acute inflammation.

Assay [1] deals with IL 1-induced release of neutral protease from rabbit articular chondrocytes. The assay can be described thus: inhibition of IL 1-induced release of neutral protease from rabbit articular chondrocytes (azocoll assay). In kind it is cell-based, rabbit (New Zealand White). The note with it: Oryctolagus cuniculus, Chondrocyte, compound added 10 min before human IL 1, 24 h stimulation, read-out: % Inhibition (I.S.D.). As for the experimental part:
The ability of the compounds of the inventions to inhibit interleukin 1 is measured by the ability of the test compounds to inhibit the IL 1-induced release of neutral protease from rabbit articular chondrocytes.
Male New Zealand White rabbits are anesthetized with 50 mg/kg of ketamine (i.m.) and killed by an intracardiac injection of 3 mls. of Nembutal. The knee joints of both legs are resected and the articular surfaces are exposed. Cartilage slices are obtained using a scalpel and are placed in a tissue culture dish (100 mm diameter) containing 10 mls of Hank's balanced salt solution (HBSS). The chondrocytes within the cartilage slices are then liberated by a series of enzyme digestions. The slices are incubated for 10 min. at 37° C. in 0.05% hyaluronidase (Sigma H-3884), rinsed with HBSS and incubated with 0.2% trypsin (Sigma T-2395) for 10 min. at 37° C. The slices are rinsed again and incubated for 10 mins. at 37° C. with 1.2% collagenase (Sigma C-5138). The slices are then rinsed again with HBSS and resuspended in 10 ml of Ham's F-12 medium containing 10% fetal bovine calf serum (FCS) and 0.2% collagenase and incubated overnight at 37° C. in a 5% CO2 incubator. The next day, the medium containing the digested cartilage fragments and liberated chondrocytes is transferred to a 15 ml centrifuge tube and the cells are collected by centrifugation and washed twice and resuspended in Ham's F-12 medium. The cells are then plated into 24-well tissue culture plates (2×10^5 cells/well) and incubated at 37° C. until confluent (usually 4-6 days).
The confluent chondrocytes are rinsed twice with serum-free Ham's F-12 medium and 1 ml is added to each well. Fifty μl of purified human IL 1 (100 Units/ml; Genzyme Corporation, Boston, MA) is then added to stimulate these cells to secrete neutral protease. To measure drug effects, the cells are treated with test compound 10 min. prior to addition of IL 1. The standard screening dose is 10 μM. Twenty-four hours after IL 1 stimulation, supernatant fluids are collected and assayed for neutral protease activity.
The neutral protease activity of chondrocyte supernatant fluids is determined by their ability to degrade an insoluble protease substrate, azocoll (Sigma). Supernatants are treated for 10 min. at room temperature with 350 μM p-aminophenylmurcuric acetate to activate the latent enzyme. Three hundred μl of supernatant is then mixed with 500 μl of a 20 mg/ml suspension of azocoll and incubated at 37° C. for 18-24 hrs. with gentle rocking. The mixtures are centrifuged and the amount of substrate hyrolyzed is determined by measuring the absorbance of the supernatant at 520 nm.
Drug effects are calculated as the % change in enzyme activity (absorbance)by supernatants from drug-treated chondrocytes relative to enzyme activity of supernatants from vehicle-treated chondrocytes as follows: [formula]

Regarding `CC(=O)Oc1ccccc1C(=O)O` [Aspirin, reference compound], the ED50 with carrageenan paw edema is 145 mg/kg. In the case of `COCCNc1c2c(nc3cc(Cl)ccc13)CCN(C)C2` [Example 12, 7-Chloro-1,2,3,4-tetrahydro-N-(2-methoxyethyl)-2-methylbenzo[b]-[1,6]naphthyridin-10-amine, three quarter hydrate], the inhibition at 10 µM in assay [1] amounted to 62 ± 28%. In the case of `C=CCCCN1CCc2nc3cc(Cl)ccc3c(NNc3ccccc3)c2C1` [Example 11, 7-Chloro-1,2,3,4-tetrahydro-2-(4-pentenyl)-10-(2-phenyl-hydrazino)benzo[b][1,6]naphthyridine, sesquihydrate], in assay [1], the inhibition at 10 µM came to 11 ± 26%. As to `CCCCCCCCN1CCc2nc3cc(Cl)ccc3c(NNc3ccccc3)c2C1` [Example 9, 7-Chloro-1,2,3,4-tetrahydro-2-octyl-10-(2-phenyl-hydrazino)benzo[6][1,6]naphthyridine], the inhibition at 1 µM in assay [1] was 22 ± 6%. Take `CCCCN1CCc2nc3cc(Cl)ccc3c(NNc3ccccc3)c2C1` [Example 8, 2-Butyl-7-chloro-1,2,3,4-tetrahydro-10-(2-phenyl-hydrazino)benzo[b][1,6]naphthyridine]: the inhibition at 1 µM in assay [1] was 22 ± 6%. Take `CN1CCc2nc3cc(Cl)ccc3c(Sc3ccccc3)c2C1` [Example 17, 7-Chloro-1,2,3,4-tetrahydro-2-methyl-10-thiophenylbenzo[b][1,6]naphthyridine]: the inhibition at 10 µM in assay [1] came out at 44 ± 21%.

As for `CN1CCc2nc3ccc(Cl)cc3c(Nc3ccccc3)c2C1` [Example 19, 10-Anilino-8-chloro-1,2,3,4-tetrahydro-2-methylbenzo[b][1,6]naphthyridine], in assay [1], the inhibition at 10 µM came out at 23 ± 25%. Same read-out and setting: to `C=CCN1CCc2nc3cc(Cl)ccc3c(NNc3ccccc3)c2C1` [Example 10, 7-Chloro-1,2,3,4-tetrahydro-10-(2-phenylhydrazino)-2-(2-propenyl)benzo[b][1,6]naphthyridine, dihydrate] belongs 62 ± 2%. Turning to `CN1CCc2nc3ccc(Cl)cc3c(NN)c2C1` [Example 20, (8-Chloro-1,2,3,4-tetrahydro-2-methylbenzo[b][1,6]naphthyridin-10-yl)hydrazine], in assay [1], the inhibition at 5 µM came to 18%.

Take `CN1CCN(c2c3c(nc4cc(Cl)ccc24)CCN(C)C3)CC1` [Example 16, 7-Chloro-1,2,3,4-tetrahydro-2-methyl-10-(4-methyl-1-piperazinyl)benzo[b][1,6]naphthyridine]: the inhibition at 5 µM in assay [1] was found to be 14 ± 3%.

On to `CN1CCc2nc3cc(Cl)ccc3c(Oc3ccccc3)c2C1` [Example 15, 7-Chloro-1,2,3,4-tetrahydro-2-methyl-10-phenoxybenzo[b][1,6]naphthyridine], for which the inhibition at 10 µM in assay [1] amounted to 22 ± 28%. Take `C=CCCCN1CCc2nc3cc(Cl)ccc3c(Cl)c2C1` [Example 4, 7,10-Dichloro-1,2,3,4-tetrahydro-2-(4-pentenyl)benzo[b][1,6]naphthyridine]: the inhibition at 10 µM in assay [1] was 12 ± 5%.

Consider `CN1CCc2nc3ccc(Cl)cc3c(SCCCN)c2C1` [Example 21, 10-(3-Aminopropylthio)-8-chloro-1,2,3,4-tetrahydro-2-methylbenzo[b][1,6]naphthyridine], for which the inhibition at 10 µM in assay [1] came to 42 ± 26%.

Take `CN1CCc2nc3ccc(Cl)cc3c(Cl)c2C1` [Example 6, 8,10-Dichloro-1,2,3,4-tetrahydro-2-methylbenzo[b][1,6]naphthyridine]: the inhibition at 10 µM in assay [1] worked out at 13 ± 6%.

`CN1CCc2nc3cc(Cl)ccc3c(Cl)c2C1` [Example 5]: the inhibition at 10 µM in assay [1] was found to be 26 ± 23%. For the molecule `COc1ccc2c(c1)c(CC(=O)O)c(C)n2C(=O)c1ccc(Cl)cc1` [Indomethacin, reference compound], the ED50 in the assay on carrageenan paw edema is 3.7 mg/kg. On to `CN1CCc2nc3ccc(Cl)cc3c(Oc3ccccc3)c2C1` [Example 18, 8-Chloro-1,2,3,4-tetrahydro-2-methyl-10-phenoxybenzo[b][1,6]naphthyridine], for which the inhibition at 10 µM in assay [1] worked out at 9 ± 28%.

`CN1CCc2nc3cc(Cl)ccc3c(Nc3ccccc3)c2C1` [Example 14, 10-Anilino-7-chloro-1,2,3,4-tetrahydro-2-methylbenzo[b][1,6]naphthyridine]: the inhibition at 10 µM in assay [1] stood at 14 ± 4%. On to `CN1CCc2nc3cc(Cl)ccc3c(NNc3ccccc3)c2C1` [Example 7, 1-(7-Chloro-1,2,3,4-tetrahydro-2-methylbenzo[b][1,6]-naphthyridin-10-yl)-2-phenylhydrazine], for which the inhibition at 1 µM in assay [1] is 35 ± 22%. For the same molecule, the inhibition at 10 µM in assay [1] stood at 78 ± 13%. The “% Change” value in the assay with carrageenan paw edema (10 mg/kg perorally) is reported as 41%; with carrageenan paw edema (30 mg/kg perorally), 64%; with carrageenan paw edema (90 mg/kg perorally), 68%; with carrageenan paw edema (100 mg/kg perorally) it was 59%. For the molecule `CN1CCc2nc3cc(Cl)ccc3c(NCCN3CCOCC3)c2C1` [Example 13, 7-Chloro-1,2,3,4-tetrahydro-2-methyl-N-(2-(4-morpholinyl)-ethyl)benzo[b][1,6]naphthyridin-10-amine], the inhibition at 10 µM in assay [1] was determined as 4 ± 13%. With `CCCCN1CCc2nc3cc(Cl)ccc3c(Cl)c2C1` [Example 1, 2-Butyl-7,10-dichloro-1,2,3,4-tetrahydrobenzo[b][1,6]naphthyridine], the inhibition at 10 µM in assay [1] amounted to 3%. On the same count and under the same terms, to `CCCCCCCCN1CCc2nc3cc(Cl)ccc3c(Cl)c2C1` [Example 2, 7,10-dichloro-1,2,3,4-tetrahydro-2-octylbenzo[b][1,6]naphthyridine] belongs 51%.

What is called ED50 is the midpoint of the dose-response relation. Usually inhibition stands for the change of the read-out against control, counted positive when it falls.
